The test system of assay [1] is potassium-stimulated 45Ca uptake of synaptosomes. The assay is described as follows: Potassium-stimulated 45Ca uptake into synaptosomes. The assay is classed as cell-based, rat. As to the method:
Several compounds were also tested to determine whether the Ca^2+ dependent and independent components of glutamate release are related to the blockage of ^45 Ca uptake. Calcium uptake is one step in the cascade of events which occur in neuronal cell death from ischemia. See Bassaclough and Leach, Current Patents Ltd., 2-27. The Ca-flux protocol is as follows. Rat brain synaptosomes were prepared according to Hajos, Brain Res. 93:485 (1975). Synaptosomes were suspended in low potassium "LK" buffer (containing 3 mM KCl) at 2 mg/ml. […] After 5 seconds, the ^45 Ca flux was stopped with 0.9 ml quench solution (LK+10 mM EGTA). The solution was filtered under vacuum and the filters washed with 15 ml of quench buffer. The effect of drug is expressed as % inhibition (or block) of control potassium-stimulated ^45 Ca influx. This method is an adaptation of the method disclosed by Nachsen and Blaustein, J. Physiol. 361:251-268 (1985).

In assay [2] the test system is 3H-glutamate release from rat brain synaptosomes. The assay is described as follows: Inhibition of K+-evoked 3H-glutamate release from synaptosomes (rapid superfusion). In kind it is cell-based. How it is done: To study the release of presynaptic ^3 H-glutamate, synaptosomes from young rats were used. CD Male rats of 4 to 6 weeks (50-75 g) were used for the preparation of synaptosomes. Rats were killed by decapitation with guillotine and the skull bone was opened in the center with the pointed blade of dissection scissors. The bone is then peeled away with a bone cutter and the brain is pried with a micro spatula. The cerebellum is removed and the rest of the brain is placed in 35 ml of 0.32M Sucrose solution and homogenized in a Thomas glass teflon homogenizer C at the maximum power setting (about 450 rpm) with 16 strokes. The pestle is rinsed with 5 ml of sucrose solution and added to the homogenate. The homogenate is centrifuged for 10 min at 3500 rpm (1500 g) in a SS-34 rotor in Sorvall RC-5B. The resulting pellet (P1) is discarded and the supernatant (S1) is recentrifuged for 20 min at 8700 rpm (8500 g). The supernatant (S2) is discarded and the pellet (P2) is resuspended in 5 ml of 0.32M sucrose and hand homogenized with 4 strokes (Thomas C) and the volume was made up to 8 ml. This homogenate was layered on 20 ml of 0.8M sucrose solution in two centrifuge tubes and spun for 25 minutes at 8700 rpm (8500 g). At the end of this spin, most of the myelin stays at the interphase of 0.32M and 0.8M sucrose and mitochondria pellet as a brown pellet. The synaptosomes are dispersed in the 0.8M sucrose. Using a 10 ml pipette, the 0.8M sucrose layer is collected (without disturbing the top myelin layer or the pellet) and diluted slowly with an equal volume of chilled basal buffer, while stirring gently with a Pasteur pipette. This diluted solution is centrifuged for 10 min at 10,000 rpm (12,000 g) and the pellet is resuspended in 1.5 ml of basal buffer and hand-homogenized in a Wheaton glass-glass 7 ml homogenizer with 8 strokes.
The synaptosomal homogenate is diluted 1 ml to 10 ml with basal buffer. This dilution gives a protein concentration of 500 to 600 μg/ml. One hundred μl of this diluted prep with 50-60 μg of protein is used for each superfusion event. […] The diluted synaptosomal solution was kept on ice until the end of the experiment.
^3 H-glutamate (purchased from NEN) is stored in the refrigerator. Pipette 6 μl ([…]; 40 to 55 Ci/mmol) into a disposable test tube. Add 100 μl of diluted prep and mix gently on vortex and incubate at 30° C. for 10 min. ^3 H-glutamate is taken up by sodium-coupledglutamate transporter present in synaptosomal membranes. After 10 min, dilute the incubation mixture with 690 μl of basal buffer. This solution is then transferred in Tygon tubing that is connected to the synaptosome loading chamber. Using a syringe filler with air, the solution is forced through the Millipore SC--GF/F--Millipore SC filter sandwich. These filters retain the synaptosomes and the solution flows through.
An important component of the superfusion setup is the custom made stainless steel "General Valve" three-valve solenoid operated superfusion chamber with an outlet for the effluent. The three inlets are connected to stainless steel buffer reservoirs that contain (1) wash buffer, (2) control buffer and (3) experimental buffer which are kept under 40 psi of nitrogen gas through teflon tubing connections. The superfusion is controlled through a menu-driven program on an Apple IIe computer. See Turner, J. T. et al., Anal. Biochem. 178:8-16 (1989), and U.S. Pat. No. 4,891,185, the disclosures of which are fully incorporated by reference herein.
The superfusion chamber has a teflon bushing and a stainless steel washer fixed with the flat surface facing the filters. A GF/B filter disc is placed first in the chamber to eliminate the switching related artifacts. The synaptosome loaded sandwich is then placed facing the synaptosomes into the flow followed by RA filter, stainless steel screen and a washer with the flat side facing the screen.

The subject of assay [3] is Ca2+-dependent glutamate release stimulated with the sodium channel activator veratridine. The assay is described as follows: Glutamate release of synaptosomes depolarized with veratridine. In kind it is cell-based. The settings on record: various concentrations.
The next assay deals with sigma receptor. The assay is described as follows: Sigma receptor binding against 3H-DTG.
Assay [4] relates to ω-conotoxin-sensitive N-type calcium channels. Put plainly: Electrophysiology on N-type calcium channels of single dorsal root ganglion cells. The assay is classed as cell-based, bullfrog. As to the method:
Single bullfrog dorsal root ganglion cells, which express ω-conotoxin-sensitive N-type calcium channels, were treated with 5 uM of N,N'-di(acenaphthyl) guanidine. The solution also contained (in mM) CsCl, 90; creatine phosphate, 5; MgATP, 5; tris GTP, 0.3; EGTA, 10; HEPES, 10; pH 7.2. […] Calcium channel rundown during the recording period may account for the lack of complete reversal of inhibition. This further supports the hypothesis that certain substituted guanidines inhibit neurotransmitter release by […] presynaptic calcium channels.

In assay [5] the test system is sodium channels in N1E-115 neuroblastoma cells. Put plainly: Whole cell sodium currents in voltage clamped N1E-115 neuroblastoma cells. In kind it is cell-based. From the text: Whole cell sodium currents were elicited in voltage clamped N1E-115 neuroblastoma cells, using the stimulus protocol shown on the top of FIG. 7.
Assay [6] concerns hippocampal slices (Schaffer collateral synaptic potentials). The assay is described as follows: Hippocampal slice electrophysiology of excitatory synaptic transmission (field EPSP, population spikes). Also noted: species or system Sprague-Dawley rats. Particulars: for reversibility of effect: following washout. As to the method:
Transverse sections of hippocampus were obtained from 4-6 week old Sprague-Dawley rats and maintained under standard conditions. […] Extracellular excitatory post synaptic potentials (EPSP's) were recorded by placing a saline-filled glass microelectrode in either the stratum radiatum or stratum lacunosum. Population spikes were recorded by placing an electrode in the stratum pyramidole.

The mark [7] stands for this setting: Rattus norvegicus, read-out: Inhibition of 45Ca Uptake, % Inhibition @ 10 uM (SEM).
[8] abbreviates: Rattus norvegicus; read-out: Inhibition of 45Ca Uptake, IC50.
Setting [9] is: Rattus norvegicus, read-out: Inhibition of Glutamate Release (Persistent Component), % Inhibition @ 10 uM.
Setting [10] is: Rattus norvegicus, read-out: inhibition of glutamate release.
The mark [11] stands for this setting: Rattus norvegicus, read-out: relative level of glutamate release.
Setting [12] is: Rattus norvegicus, read-out: Inhibition of Glutamate Release (Persistent Component), IC50.
Setting [13] is: bath application, listed as N,N'-di(5-acenaphthyl)guanidine, Hydrobromide.
Setting [14] is: Rattus norvegicus; FIG. 6 curve fits; read-out: IC50, inhibition of potassium-stimulated Ca uptake of synaptosomes (FIG. 6).

The source of these data is patent publication US5686495A, “Substituted hydrazinedicarboximidamides and methods of use thereof” (Cambridge NeuroScience, Inc., priority 1995, dated 1997).

Entries after “also recorded” stand apart in the source; their conditions may differ. Structures can show the parent of a compound that is named as a salt. Where two headings read alike, the source gives them in different places.

In general, IC50 refers to the concentration at which inhibition is half-maximal.

For the compound `N=C(Nc1ccc2c3c(cccc13)CC2)NC1C2CC3CC(C2)CC1C3` (stereo not shown) [N-(Adamantan-2-yl)-N'-(5-acenaphthyl)guanidine], the inhibition at 10 µM in assay [1] (setting [7]) was found to be 69%; in assay [2] (setting [9]), 63%. Also, the IC50 was 4.8 µM in assay [1] (setting [8]) and 5 µM in assay [2] (Rattus norvegicus; read-out: Inhibition of Glutamate Release (Persistent Component), IC50).

Regarding `N=C(NC1C2CC3CC(C2)CC1C3)NC1C2CC3CC(C2)CC1C3` (stereo not shown) [N,N'-di-(adamantan-2-yl)guanidine, N,N'-(Adamantan-2-yl)guanidine Hydrochloride], the inhibition at 10 µM in assay [1] (setting [7]) turned out to be 35%; in assay [2] (setting [9]) it was 60%. In addition, the IC50 came to 16.1 ± 10 µM in assay [1] (setting [8]) and 0.0927 µM at sigma receptor. Besides, the “inhibition of veratridine-stimulated glutamate release (FIG. 5)” value in assay [3] is recorded as “inhibition of glutamate release in a dose dependent manner”. Moreover, in assay [2] (setting [10]), the inhibition at 30 µM was determined as 60%. In addition, the activity at 30 µM in assay [2] (setting [11]) was determined as 40%. The activity at 100 µM in assay [2] (setting [11]) amounted to 20%.

Consider `Br.N=C(Nc1ccc2c3c(cccc13)CC2)Nc1ccc2c3c(cccc13)CC2` [N,N'-Bis(5-acenaphthyl)guanidine, N,N'-Bis (5-Acenaphthyl)Guanidine Hydrobromide], for which, in assay [1] (Rattus norvegicus, read-out: % Uptake vs. Control), the activity at 10 µM stood at 43%. Moreover, the inhibition at 10 µM worked out at 46% in assay [1] (setting [7]) and 92% in assay [2] (setting [9]). In addition, the IC50 in assay [1] (Rattus norvegicus, read-out: Inhibition of 45Ca Uptake, IC50) stood at 10.7 ± 3 µM; in assay [2] (setting [12]) it was 3 µM. Further, the “inhibition of N-type calcium channel current” value in assay [4] (5 uM) is given as “about 40%”; in assay [4] (20 uM) it was “inhibited nearly all of the current”. Moreover, in assay [4] (in about 6 minutes), the “reversal of N-type current inhibition” value is reported as “Most of the inhibition was reversed”. In addition, the “inhibition of Ca2+-dependent [3H]glutamate release (FIG. 3)” value in assay [2] (0, 1, 3, 10 uM; K+ depolarization) is on record as “potent inhibitor of glutamate release”. Moreover, in assay [2] (3-10 uM), the “selectivity between persistent and transient component of Ca2+-dependent glutamate release” value is listed as “blocks the persistent component of Ca^2+ -dependent glutamate release more than the initial transient component”. For the same compound, the “block of inward sodium currents, average” value in assay [5] (30 uM, pressure ejection, N=5 cells) is recorded as 40%. Moreover, the “inhibition of inward sodium current in the cell shown (FIG. 7)” value in assay [5] (30 uM, single cell of FIG. 7) was 49%. The “reversal of sodium current block” value in assay [5] (following washout) is “partially reversed following washout”. Also, the inhibition at 20 µM was in the range of 80 to 90% in assay [6] (Rattus norvegicus, bath application, read-out: reduction of field EPSP amplitude) and 80 to 90% in assay [6] (Rattus norvegicus, bath application, read-out: reduction of population spike amplitude). The “effect on field EPSP” value in assay [6] (setting [13]) is “reversibly blocked; also recorded: almost completely eliminated the field EPSP”. Moreover, in assay [6] (setting [13]), the “effect on population spikes” value is given as “completely eliminated population spikes; also recorded: reversibly blocked these population spikes”. Moreover, the reversibility of effect result in assay [6] (listed as N,N'-di(5-acenaphthyl)guanidine, Hydrobromide) is “completely reversible following washout; also recorded: fully reversible following washout; also recorded: fully recovered following washout”.

As to `N=C(Nc1ccc(F)c2ccccc12)Nc1ccc2c3c(cccc13)CC2` [N-(3- and 5-Acenaphthyl)-N'-(4-Fluoronaphthyl)-Guanidine.HCl], the inhibition at 10 µM in assay [1] (setting [7]) was 47%; in assay [2] (setting [9]), 85%. Also, the half-maximal inhibitory concentration (IC50) in assay [2] (setting [12]) is less than 5 µM.

Take `N=C(Nc1ccc(O)c2ccccc12)Nc1ccc2c3c(cccc13)CC2` [N-(5-acenaphthyl)-N'-(4-hydroxynaphthyl)guanidine]: the inhibition at 10 µM in assay [1] (setting [7]) is 35%; in assay [2] (setting [9]) it was 25%.

For the compound `C1CCC(N=C(NNC(=NC2CCCCC2)NC2CCCCC2)NC2CCCCC2)CC1` [N,N',N",N"'-Tetracyclohexyl-Hydrazinedicarboximidamide], the inhibition at 10 µM in assay [1] (setting [7]) amounted to 74%; in assay [2] (setting [9]), 67%. The IC50 amounted to 3.3 µM in assay [1] (setting [14]) and 3 µM in assay [1] (setting [8]). Also, in assay [2] (setting [11]), the activity at 30 µM was 51%.

For `N=C(NC12CC3CC(CC(C3)C1)C2)NC12CC3CC(CC(C3)C1)C2` [N,N'-di-(adamantan-1-yl)guanidine], the inhibition at 10 µM stood at 25% in assay [1] (setting [7]) and 49% in assay [2] (setting [9]). Further, the values for the half-inhibitory concentration (IC50) (in assay [1] (setting [14]); in assay [1] (setting [8]); at sigma receptor) were 6.6 µM, 25 ± 9 µM and 0.0165 µM, respectively. Moreover, the “concentration dependence of 3H-glutamate release (FIG. 2)” value in assay [2] (0, 10, 30, 100 uM; 2.1 second K+ depolarizing pulse) is recorded as “decreasing release of glutamate from synaptosomes”. Besides, in assay [2] (setting [10]), the inhibition at 30 µM is 55%. Moreover, in assay [2] (setting [11]), the activity at 30 µM was 45%. In assay [2] (setting [11]), the activity at 100 µM amounted to 13%.

Take `N=C(Nc1cccc2ccccc12)Nc1cccc2ccccc12` [N,N'-di-(1-naphthyl)guanidine]: in assay [1] (setting [7]), the inhibition at 10 µM was determined as 27%. In addition, the concentration for half-maximal inhibition (IC50) in assay [1] (setting [8]) stood at 23.6 ± 10 µM. Besides, in assay [2] (setting [9]), the inhibition at 10 µM was 31%. Besides, in assay [2] (setting [11]), the activity at 30 µM worked out at 19% and the activity at 100 µM is 29%.

`Nc1ncnc2c1ncn2[C@@H]1O[C@H](CO)[C@@H](O)[C@H]1O` [adenosine, reference compound]: the inhibition at 1000 µM in assay [6] (Rattus norvegicus, 1 mM, bath application, read-out: reduction of field EPSP amplitude) amounted to 90%. For the same compound, in assay [6] (bath application), the “effect on field EPSP” value is listed as “almost completely eliminated field EPSP's” and the “effect on population spikes” value is listed as “totally blocked”. Also, the reversibility of effect result in assay [6] is listed as “fully reversible following washout”.
